{"source": "patent US11730743B2", "about": "“Protection of cells from degeneration and treatment of geographic atrophy” (University of Kentucky Research Foundation, priority 2012, dated 2023)", "key": {"human RPE cells": {"tested_on": "human RPE cells", "protocol": "Cell viability. Cell viability measurements were performed using the CellTiter 96 AQueous One Solution Cell Proliferation Assay (Promega) in according to the manufacturer's instructions.\nCell culture. All cell cultures were maintained at 37° C. and 5% CO2. Primary mouse RPE cells were isolated as previously described (Yang et al., 2009) and grown in Dulbecco Modified Eagle Medium (DMEM) supplemented with 20% FBS and standard antibiotics concentrations. Primary human RPE cells were isolated as previously described (Yang et al., 2008) and maintained in DMEM supplemented with 10% FBS and antibiotics. HeLa cells were maintained in DMEM supplemented with 20% FBS and standard antibiotics concentrations. THP-1 cells were cultured in RPMI 1640 medium supplemented with 10% FBS and antibiotics.\nTransient transfection. Human or mouse RPE cells were transfected with pUC19, pAlu, pCDNA3.1/Dicer-FLAG, pCDNA3.1, Alu RNA, NLRP3 siRNA sense, PYCARD siRNA sense, MyD88 siRNA sense, DICER1 antisense oligonucleotide (AS), control (for DICER1) AS, Alu AS, and control (for Alu) AS using Lipofectamine 2000 (Invitrogen) according to the manufacturer's instructions.\nCell viability. MTS assays were performed using the CellTiter 96 AQueous One Solution Cell Proliferation Assay (Promega) according to the manufacturer's instructions. For examining the cytoprotective effect of glycine in Alu RNA induced cell death, human RPE cells were transfected with pNull/pAlu. At 6 h post-transfection the cells were incubated with complete media containing glycine (5 mM) or vehicle, and cell viability was assessed after 24 h. Similarly, human RPE cells primed with LPS (5 μg/ml for 6 h) were treated with ATP (25 μM) in the presence of glycine containing media (5 mM). 30 min post ATP cell viability was assessed as described above."}, "[1]": {"tested_on": "Dicer1f/f mouse RPE cells", "assay": "Cell viability of Dicer1f/f mouse RPE cells treated with Ad-Cre", "format": "cell-based", "protocol": "(§1) Adenoviral infection. Cells were plated at density of 15×10^3/cm^2 and after 16 h, at approximately 50% confluence, were infected with AdCre or AdNull (Vector Laboratories) with a multiplicity of infection of 1,000."}, "IRAK1/4": {"tested_on": "IRAK1/4", "assay": "Western blot of phosphorylated IRAK1/4 in human RPE cells", "format": "cell-based", "details": "normalized to Vinculin", "protocol": "Protein abundance and activity. Protein abundance was assessed by Western blot analysis using primary antibodies recognizing Caspase-1 (1:500; Invitrogen), pIRAK1 (1:500; Thermo Scientific), pIRAK4 (1:500, Abbomax, Inc), PYCARD (1:200, Santa Cruz Biotechnology), NLRP3 (1:500, Enzo Life Sciences) and Vinculin (1:1,000; Sigma-Aldrich). Caspase-1 activity was visualized using Caspalux1 E1D2 (OncoImmunin) reagent according to the manufacturer's instructions.\nWestern blotting. Tissues or cells were homogenized in lysis buffer (10 mM Tris base, pH 7.4, 150 mM NaCl, 1 mM EDTA, 1 mM EGTA, 1% Triton X-100, 0.5% NP-40, protease and phosphatase inhibitor cocktail (Roche)). Protein concentrations were determined using a Bradford assay kit (Bio-Rad) with bovine serum albumin as a standard. Proteins (40-100 μg) were run on NuPAGE Bis-Tris gels (Invitrogen) and transferred to Immun-Blot PVDF membranes (Bio-Rad). Cells were scraped in hot Laemmli buffer (62.5 mM Tris base, pH 6.8, 2% SDS, 5% 2-Mercaptoethanol, 10% Glycerol, 0.01% Bromophenol Blue). Samples were boiled and run on 4-20% NuPAGE Tris-Glycine gels (Invitrogen). […] Protein loading was assessed by immunoblotting using an anti-Vinculin antibody (1:1,000; Sigma-Aldrich). […]"}, "Caspase-3": {"tested_on": "Caspase-3", "assay": "Caspase-3 activation in the RPE of wild-type mice", "format": "in vivo", "details": "inhibitor intravitreous", "protocol": "Drug treatments. siRNAs formulated in siRNA buffer (20 mM KCL, 0.2 mM MgCl2 in HEPES buffer at pH 7.5; Dharmacon) or phosphate buffered saline (PBS; Sigma-Aldrich); the TLR4 antagonist Ultra Pure Rhodobacter sphaeroides LPS (LPS-RS, InvivoGen), a peptide inhibitor of MyD88 homodimerization IMG-2005 (IMGENEX), control inhibitor (IMGENEX), recombinant IL-18 (Medical & Biological Laboratories), neutralizing rat antibodies against mouse IL-1β (IMGENEX), neutralizing rat antibodies against mouse IL-18 (Medical & Biological Laboratories), isotype control IgGs (R&D Systems or eBioscience as appropriate), Caspase-1 inhibitor Z-WEHD-FMK (R&D Systems), Caspase-3 inhibitor Z-DEVD-FMK (R&D Systems), Caspase control inhibitor Z-FA-FMK (R&D Systems), (2R,4R)-APDC (Enzo Life Sciences), Glipizide (Sigma-Aldrich), Glyburide (Sigma-Aldrich), and P2X7 receptor antagonist A438079 (Tocris Bioscience) were dissolved in phosphate buffered saline (PBS; Sigma-Aldrich) or dimethyl sulfoxide (DMSO; Sigma-Aldrich), and injected into the vitreous humor in a total volume of 1 μL with a 33-gauge Exmire microsyringe (Ito Corporation). […] As a control, Luc siRNA-chol (17+2 nt) was used with identical dosages.\nCaspase-3 activity. The caspase-3 activity was measured using Caspase-3 Fluorimetric Assay (R&D Systems) according to the manufacturer's instruction."}, "wild-type mice": {"tested_on": "wild-type mice", "assay": "Laser-induced choroidal neovascularization", "format": "in vivo", "details": "intravitreous injection"}, "[2]": {"tested_on": "Dicer1f/f mouse RPE cells", "assay": "miRNA quantification in Dicer1f/f mouse RPE cells treated with Ad-Cre", "format": "cell-based", "details": "versus control peptide", "description": "miRNA quantification. Total RNA containing miRNAs was polyadenylated and reverse transcribed using universal primer using the All-In-One miRNA q-RT-PCR Detection Kit (GeneCopoeia) according to the manufacturer's specifications using a universal reverse primer in combination with forward primers for: mouse miR-184; mouse miR-221/222; mouse miR-320a; and mouse miR-484. miRNA levels were normalized to levels of U6 snRNA using the 2^−ΔΔct method. Detection was achieved by SYBR green qPCR with the following conditions: 95° C. for 10 min followed by 40 cycles of 95° C. for 10 s, 60° C. for 20 s and 72° C. for 20 s. Amplicon specificity was assessed by melt curve analysis and unique bands by agarose gel electrophoresis.\nas §1"}}}
{"substance": "MyD88 inhibitory peptide: peptide inhibitor of MyD88 homodimerization IMG-2005 (IMGENEX)", "values": [{"measurement": "cell death in human RPE cells treated with antisense oligonucleotides targeting DICER1", "setting": "human RPE cells; DICER1 AS", "result": "prevented cell death"}, {"measurement": "pAlu-induced human RPE cell death (loss of cell viability)", "setting": "human RPE cells; human RPE cells transfected with pAlu", "result": "inhibited cell death"}, {"measurement": "cell death in Dicer1f/f mouse RPE cells treated with adenoviral vector coding for Cre recombinase", "setting": "[1]", "result": "prevented cell death"}, {"measurement": "Alu RNA-induced phosphorylation of IRAK1/4", "setting": "IRAK1/4", "result": "reduced"}, {"measurement": "Alu RNA-induced Caspase-3 activation in the RPE", "setting": "Caspase-3", "result": "inhibited"}, {"measurement": "laser-induced choroidal neovascularization", "setting": "wild-type mice", "result": "reduced"}, {"measurement": "miRNA abundance in Dicer1 depleted cells", "setting": "[2]", "result": "No significant difference"}]}
